From US3957811A, “Process for 3-(1-[arylmethyl]tetrazol-5-yl)penams” (Pfizer Inc., priority 1974, dated 1976)
Values after ≈ are worked out from the molar mass of the structure shown. Read-outs that look alike come from different tables or passages of the source.

Tested on: Streptococcus pyogenes
Test: In vitro MIC, conventional two-fold serial dilution technique in Brain-Heart Infusion broth, vs. Strep. pyogenes
Type: cell-based
Settings: read-out: MIC vs. Strep. pyogenes
Protocol: The antibacterial penam compounds, prepared from the products of the instant process invention, show activity against a wide variety of gram-positive and gram-negative bacteria. […] The broth is inoculated with the bacterial culture, and with the test antibiotic, and then it is incubated overnight. On the next day, the test is read visually. The minimum inhibitory concentration (MIC) is the lowest concentration of antibiotic which prevents turbidity, i.e., which prevents growth of the microorganism. In vitro activities of several of the penam compounds of the invention are presented later in this specification.
In vitro antibacterial activities for a number of compounds prepared by the procedure of Example 8 are presented below.
In Table II, the minimum inhibitory concentrations (MIC's) of compounds wherein R is hydrogen, against a strain of Streptococcus pyogenes are reported.

[1] = compounds wherein R is hydrogen, a strain of Streptococcus pyogenes, Brain-Heart Infusion broth, overnight

SMILES | MIC [1] | MIC (Streptococcus pyogenes)
CC1(C)S[C@@H]2[C@H](NC(=O)[C@H](N)c3ccc(O)c(Cl)c3)C(=O)N2[C@H]1c1nnn[nH]1 | 0.1 µg/mL (≈ 0.236 µM) | –
CC1(C)S[C@@H]2[C@H](NC(=O)C(N)c3cc(O)ccc3Br)C(=O)N2[C@H]1c1nnn[nH]1 (mixture of isomers) | – | < 0.1 µg/mL
CC1(C)S[C@@H]2[C@H](NC(=O)C(N)c3ccc(O)c(O)c3)C(=O)N2[C@H]1c1nnn[nH]1 (mixture of isomers) [DL-2-amino-2-(3,4-dihydroxyphenyl)acetyl] | < 0.1 µg/mL | –
CC1(C)S[C@@H]2[C@H](NC(=O)C(N)c3ccc(Cl)cc3)C(=O)N2[C@H]1c1nnn[nH]1 (mixture of isomers) [DL-2-amino-2-(p-chlorophenyl)acetyl] | < 0.1 µg/mL | –
CC1(C)S[C@@H]2[C@H](NC(=O)C3(N)CCCCC3)C(=O)N2[C@H]1c1nnn[nH]1 [1-aminocyclohexylcarbonyl] | 25 µg/mL (≈ 68.4 µM) | –
COc1cccc(OC)c1C(=O)N[C@@H]1C(=O)N2[C@@H]1SC(C)(C)[C@@H]2c1nnn[nH]1 [2,6-dimethoxybenzoyl] | < 0.2 µg/mL | –
CC1(C)S[C@@H]2[C@H](NC(=O)Cn3cnnn3)C(=O)N2[C@H]1c1nnn[nH]1 [2-(1-tetrazolyl)acetyl] | < 0.39 µg/mL | –
CC1(C)S[C@@H]2[C@H](NC(=O)CSc3ccncc3)C(=O)N2[C@H]1c1nnn[nH]1 [2-(4-pyridylthio)acetyl] | – | < 0.1 µg/mL
CCN=C(NCC)SCC(=O)N[C@@H]1C(=O)N2[C@@H]1SC(C)(C)[C@@H]2c1nnn[nH]1 [2-(N,N'-diethylamidinothio)acetyl] | < 0.1 µg/mL | –
CC1(C)S[C@@H]2[C@H](NC(=O)C(N=[N+]=[N-])c3ccccc3)C(=O)N2[C@H]1c1nnn[nH]1 (stereo partly shown) [2-azido-2-phenylacetyl] | < 0.1 µg/mL | –
CC1(C)S[C@@H]2[C@H](NC(=O)CBr)C(=O)N2[C@H]1c1nnn[nH]1 [2-bromoacetyl] | < 0.1 µg/mL | –
CC1(C)S[C@@H]2[C@H](NC(=O)CC#N)C(=O)N2[C@H]1c1nnn[nH]1 [2-cyanoacetyl] | 0.1 µg/mL (≈ 0.325 µM) | –
CC1(C)S[C@@H]2[C@H](NC(=O)COc3ccccc3)C(=O)N2[C@H]1c1nnn[nH]1 [2-phenoxyacetyl] | < 0.1 µg/mL | –
CC1(C)S[C@@H]2[C@H](NC(=O)Cc3ccccc3)C(=O)N2[C@H]1c1nnn[nH]1 [2-phenylacetyl, 6-(2-Phenylacetamido)-2,2-dimethyl-3-(5-tetrazolyl)penam] | < 0.1 µg/mL | –
CC1(C)S[C@@H]2[C@H](NC(=O)C=CC(N)=O)C(=O)N2[C@H]1c1nnn[nH]1 [3-(carbamoyl)acryloyl] | < 0.1 µg/mL | –
CC1(C)S[C@@H]2[C@H](NC(=O)[C@H](N)c3cccs3)C(=O)N2[C@H]1c1nnn[nH]1 [D-2-amino-2-(2-thienyl)acetyl] | 0.1 µg/mL (≈ 0.264 µM) | –
CC1(C)S[C@@H]2[C@H](NC(=O)[C@H](N)c3cccc(F)c3)C(=O)N2[C@H]1c1nnn[nH]1 [D-2-amino-2-(m-fluorophenyl)acetyl] | < 0.1 µg/mL | –
CC1(C)S[C@@H]2[C@H](NC(=O)[C@H](N)c3cccc(O)c3)C(=O)N2[C@H]1c1nnn[nH]1 [D-2-amino-2-(m-hydroxyphenyl)acetyl] | < 0.1 µg/mL | –
CC1(C)S[C@@H]2[C@H](NC(=O)[C@H](N)c3ccc(O)cc3)C(=O)N2[C@H]1c1nnn[nH]1 [D-2-amino-2-(p-hydroxyphenyl)acetyl, 6-(D-2-amino-2-[p-hydroxyphenyl]acetamido)-2,2-dimethyl-3-(5-tetrazolyl)penam] | – | < 0.1 µg/mL
CC1(C)S[C@@H]2[C@H](NC(=O)[C@H](N)c3ccccc3)C(=O)N2[C@H]1c1nnn[nH]1 [D-2-amino-2-phenylacetyl] | < 0.1 µg/mL | –
CC(C)[C@@H](N)C(=O)N[C@@H]1C(=O)N2[C@@H]1SC(C)(C)[C@@H]2c1nnn[nH]1 [D-2-amino-3-methylbutyryl] | 0.2 µg/mL (≈ 0.589 µM) | –
CC1(C)S[C@@H]2[C@H](NC(=O)[C@H](N)Cc3ccccc3)C(=O)N2[C@H]1c1nnn[nH]1 [D-2-amino-3-phenylpropionyl] | 0.39 µg/mL (≈ 1.01 µM) | –
CC1(C)S[C@@H]2[C@H](NC(=O)[C@@H](N)c3ccc(O)cc3)C(=O)N2[C@H]1c1nnn[nH]1 [L-2-amino-2-(p-hydroxyphenyl)acetyl] | < 0.1 µg/mL | –
CC(=O)N[C@@H]1C(=O)N2[C@@H]1SC(C)(C)[C@@H]2c1nnn[nH]1 [acetyl] | < 0.1 µg/mL | –
CC1(C)S[C@@H]2[C@H](NC(=O)OCc3ccccc3)C(=O)N2[C@H]1c1nnn[nH]1 [benzyloxycarbonyl] | < 0.1 µg/mL | –
CCOC(=O)N[C@@H]1C(=O)N2[C@@H]1SC(C)(C)[C@@H]2c1nnn[nH]1 [ethoxycarbonyl] | < 0.1 µg/mL | –
CC1(C)S[C@@H]2[C@H](N)C(=O)N2[C@H]1c1nnn[nH]1 [hydrogen, 6-Amino-2,2-dimethyl-3-(5-tetrazolyl)penam] | < 0.1 µg/mL | –
CC1(C)S[C@@H]2[C@H](NC(=O)Oc3ccccc3)C(=O)N2[C@H]1c1nnn[nH]1 [phenoxycarbonyl] | – | < 0.1 µg/mL
